ChEMBL document CHEMBL5212743, “Selectivity Literature for EUbOPEN Chemogenomics Library wave 3” (2023)
Each block holds one compound with its values, some of them ahead of it.

Key:
[1] = molecular target: Sodium-dependent dopamine transporter (Homo sapiens, UniProt Q01959); assay: Selectivity interaction (GPCR panel (PDSP screen)) EUB0000327a SLC6A3
[2] = molecular target: Alpha-2A adrenergic receptor (Homo sapiens, UniProt P08913); assay: Selectivity interaction (GPCR panel (PDSP screen)) EUB0000327a ADRA2A
[3] = molecular target: T1, Phosphatidylinositol 4,5-bisphosphate 3-kinase catalytic subunit alpha isoform (Homo sapiens, UniProt P42336); assay: Selectivity interaction (NanoBRET assay (HEK293T cells)) EUB0000312b PIK3CA
[4] = molecular target: T2, Epithelial discoidin domain-containing receptor 1 (Homo sapiens, UniProt Q08345); assay: Selectivity interaction (KinomeScan (DiscoverX)) EUB0000312b DDR1; details: at 1 µM
[5] = molecular target: T2, Epithelial discoidin domain-containing receptor 1; assay: Selectivity interaction (NanoBRET assay (HEK293T cells)) EUB0000312b DDR1
[6] = molecular target: T3, Calcium/calmodulin-dependent protein kinase type 1B (Homo sapiens, UniProt Q6P2M8); assay: Selectivity interaction (NanoBRET assay (HEK293T cells)) EUB0000312b PNCK
[7] = molecular target: T4, Tyrosine-protein kinase JAK1 (Homo sapiens, UniProt P23458); assay: Selectivity interaction (KinomeScan (DiscoverX)) EUB0000312b JAK1@kinase 1; details: at 1 µM
[8] = molecular target: T3, Calcium/calmodulin-dependent protein kinase type 1B; assay: Selectivity interaction (KinomeScan (DiscoverX)) EUB0000312b PNCK; details: at 1 µM
[9] = molecular target: T1, Phosphatidylinositol 4,5-bisphosphate 3-kinase catalytic subunit alpha isoform; assay: Selectivity interaction (KinomeScan (DiscoverX)) EUB0000312b PIK3CA; details: at 1 µM
[10] = molecular target: T4, Tyrosine-protein kinase JAK1; assay: Selectivity interaction (NanoBRET assay (HEK293T cells)) EUB0000312b JAK1@kinase 1
[11] = molecular target: Mitogen-activated protein kinase 9 (Homo sapiens, UniProt P45984); assay: Selectivity interaction (KinomeScan (DiscoverX)) EUB0000312b MAPK9; details: at 1 µM
[12] = molecular target: Histone-lysine N-methyltransferase EZH2 (Homo sapiens, UniProt Q15910); assay: Selectivity interaction (HMT panel) EUB0000194b EZH2
[13] = molecular target: Protein arginine N-methyltransferase 1 (Homo sapiens, UniProt Q99873); assay: Selectivity interaction (HMT panel) EUB0000194b PRMT1
[14] = molecular target: Protein arginine N-methyltransferase 3 (Homo sapiens, UniProt O60678); assay: Selectivity interaction (HMT panel) EUB0000194b PRMT3
[15] = molecular target: T5, Histone-lysine N-methyltransferase SETD7 (Homo sapiens, UniProt Q8WTS6); assay: Selectivity interaction (HMT panel) EUB0000194b SETD7
T5 sequence (Q8WTS6 whole entry): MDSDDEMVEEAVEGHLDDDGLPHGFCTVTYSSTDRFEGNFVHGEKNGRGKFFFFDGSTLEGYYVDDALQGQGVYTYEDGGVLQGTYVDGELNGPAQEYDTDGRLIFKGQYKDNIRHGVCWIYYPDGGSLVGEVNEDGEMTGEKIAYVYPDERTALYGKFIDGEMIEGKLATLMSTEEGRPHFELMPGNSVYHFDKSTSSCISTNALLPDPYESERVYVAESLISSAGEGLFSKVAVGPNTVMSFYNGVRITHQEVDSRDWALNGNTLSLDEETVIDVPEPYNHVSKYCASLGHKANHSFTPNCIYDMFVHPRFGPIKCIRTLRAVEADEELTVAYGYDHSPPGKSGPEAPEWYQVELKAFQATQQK

[16] = molecular target: Histone-lysine N-methyltransferase SUV39H2 (Homo sapiens, UniProt Q9H5I1); assay: Selectivity interaction (HMT panel) EUB0000194b SUV39H2
[17] = molecular target: Histone-lysine N-methyltransferase 2A (Homo sapiens, UniProt Q03164); assay: Selectivity interaction (HMT panel) EUB0000194b MLL
[18] = molecular target: Histone-lysine N-methyltransferase SETDB1 (Homo sapiens, UniProt Q15047); assay: Selectivity interaction (HMT panel) EUB0000194b SETDB1
[19] = molecular target: Histone-lysine N-methyltransferase KMT5B (Homo sapiens, UniProt Q4FZB7); assay: Selectivity interaction (HMT panel) EUB0000194b SUV420H1
[20] = molecular target: Protein arginine N-methyltransferase 5 (Homo sapiens, UniProt O14744); assay: Selectivity interaction (HMT panel) EUB0000194b PRMT5
[21] = molecular target: Protein arginine N-methyltransferase 8 (Homo sapiens, UniProt Q9NR22); assay: Selectivity interaction (HMT panel) EUB0000194b PRMT8
[22] = molecular target: T6, Alpha-2C adrenergic receptor (Homo sapiens, UniProt P18825); assay: Selectivity interaction (Enzyme panel (GPCRS, ion channels, and transporters)) EUB0000194b ADRA2C
T6 sequence (P18825 whole entry): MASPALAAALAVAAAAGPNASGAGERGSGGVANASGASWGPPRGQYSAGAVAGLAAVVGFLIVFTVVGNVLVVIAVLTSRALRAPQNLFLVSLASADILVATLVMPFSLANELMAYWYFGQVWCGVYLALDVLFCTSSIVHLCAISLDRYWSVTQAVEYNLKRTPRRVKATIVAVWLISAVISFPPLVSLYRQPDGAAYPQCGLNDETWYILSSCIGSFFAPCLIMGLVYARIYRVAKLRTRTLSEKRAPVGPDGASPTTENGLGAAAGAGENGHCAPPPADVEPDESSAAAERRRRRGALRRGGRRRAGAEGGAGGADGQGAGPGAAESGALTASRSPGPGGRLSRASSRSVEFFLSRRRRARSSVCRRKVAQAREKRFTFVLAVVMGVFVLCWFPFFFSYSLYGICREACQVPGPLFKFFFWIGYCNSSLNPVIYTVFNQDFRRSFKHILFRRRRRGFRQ

[23] = molecular target: T7, N-lysine methyltransferase KMT5A (Homo sapiens, UniProt Q9NQR1); assay: Selectivity interaction (HMT panel) EUB0000194b SETD8
T7 sequence (Q9NQR1 whole entry): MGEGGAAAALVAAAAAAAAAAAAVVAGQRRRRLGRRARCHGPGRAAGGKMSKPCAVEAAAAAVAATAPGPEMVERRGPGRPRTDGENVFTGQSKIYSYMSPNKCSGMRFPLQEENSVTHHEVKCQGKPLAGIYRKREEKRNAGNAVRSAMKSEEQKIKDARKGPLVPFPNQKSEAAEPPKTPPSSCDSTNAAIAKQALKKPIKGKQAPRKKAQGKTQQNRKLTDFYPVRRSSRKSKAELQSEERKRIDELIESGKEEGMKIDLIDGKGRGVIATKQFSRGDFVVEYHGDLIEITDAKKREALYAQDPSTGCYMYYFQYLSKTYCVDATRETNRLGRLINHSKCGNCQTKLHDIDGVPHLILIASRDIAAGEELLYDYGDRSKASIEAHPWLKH

[24] = molecular target: Histone-lysine N-methyltransferase KMT5C (Homo sapiens, UniProt Q86Y97); assay: Selectivity interaction (HMT panel) EUB0000194b SUV420H2
[25] = molecular target: Histone-arginine methyltransferase CARM1 (Homo sapiens, UniProt Q86X55); assay: Selectivity interaction (HMT panel) EUB0000194b CARM1

T1 sequence (P42336 whole entry, the tested form may be a part, canonical isoform): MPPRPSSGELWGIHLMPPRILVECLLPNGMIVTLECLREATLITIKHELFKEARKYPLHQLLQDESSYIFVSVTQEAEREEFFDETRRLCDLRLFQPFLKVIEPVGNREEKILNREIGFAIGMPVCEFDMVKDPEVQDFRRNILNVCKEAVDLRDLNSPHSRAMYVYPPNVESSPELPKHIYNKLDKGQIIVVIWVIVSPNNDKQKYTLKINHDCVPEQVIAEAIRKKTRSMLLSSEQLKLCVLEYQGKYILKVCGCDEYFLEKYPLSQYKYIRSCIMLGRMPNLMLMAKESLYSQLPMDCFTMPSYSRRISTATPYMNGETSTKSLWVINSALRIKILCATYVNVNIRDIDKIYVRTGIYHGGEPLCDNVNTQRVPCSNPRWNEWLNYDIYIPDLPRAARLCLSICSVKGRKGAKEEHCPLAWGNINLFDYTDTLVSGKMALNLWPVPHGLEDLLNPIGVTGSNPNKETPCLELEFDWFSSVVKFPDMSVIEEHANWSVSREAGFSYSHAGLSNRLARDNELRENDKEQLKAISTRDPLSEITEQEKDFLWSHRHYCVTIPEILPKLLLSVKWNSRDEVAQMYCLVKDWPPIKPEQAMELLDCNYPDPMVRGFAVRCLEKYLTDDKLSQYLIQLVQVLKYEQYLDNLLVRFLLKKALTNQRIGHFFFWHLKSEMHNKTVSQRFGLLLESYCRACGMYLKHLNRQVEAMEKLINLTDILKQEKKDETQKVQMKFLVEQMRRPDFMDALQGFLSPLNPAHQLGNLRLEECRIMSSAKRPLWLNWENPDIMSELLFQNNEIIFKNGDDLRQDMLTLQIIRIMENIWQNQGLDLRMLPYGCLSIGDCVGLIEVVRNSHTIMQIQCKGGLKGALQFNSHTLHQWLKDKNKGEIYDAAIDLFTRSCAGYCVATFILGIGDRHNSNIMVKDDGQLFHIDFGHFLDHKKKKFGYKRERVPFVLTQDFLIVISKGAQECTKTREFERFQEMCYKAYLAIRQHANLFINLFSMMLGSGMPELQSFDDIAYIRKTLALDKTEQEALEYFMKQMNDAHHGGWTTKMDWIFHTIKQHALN
T2 sequence (Q08345 whole entry, the tested form may be a part): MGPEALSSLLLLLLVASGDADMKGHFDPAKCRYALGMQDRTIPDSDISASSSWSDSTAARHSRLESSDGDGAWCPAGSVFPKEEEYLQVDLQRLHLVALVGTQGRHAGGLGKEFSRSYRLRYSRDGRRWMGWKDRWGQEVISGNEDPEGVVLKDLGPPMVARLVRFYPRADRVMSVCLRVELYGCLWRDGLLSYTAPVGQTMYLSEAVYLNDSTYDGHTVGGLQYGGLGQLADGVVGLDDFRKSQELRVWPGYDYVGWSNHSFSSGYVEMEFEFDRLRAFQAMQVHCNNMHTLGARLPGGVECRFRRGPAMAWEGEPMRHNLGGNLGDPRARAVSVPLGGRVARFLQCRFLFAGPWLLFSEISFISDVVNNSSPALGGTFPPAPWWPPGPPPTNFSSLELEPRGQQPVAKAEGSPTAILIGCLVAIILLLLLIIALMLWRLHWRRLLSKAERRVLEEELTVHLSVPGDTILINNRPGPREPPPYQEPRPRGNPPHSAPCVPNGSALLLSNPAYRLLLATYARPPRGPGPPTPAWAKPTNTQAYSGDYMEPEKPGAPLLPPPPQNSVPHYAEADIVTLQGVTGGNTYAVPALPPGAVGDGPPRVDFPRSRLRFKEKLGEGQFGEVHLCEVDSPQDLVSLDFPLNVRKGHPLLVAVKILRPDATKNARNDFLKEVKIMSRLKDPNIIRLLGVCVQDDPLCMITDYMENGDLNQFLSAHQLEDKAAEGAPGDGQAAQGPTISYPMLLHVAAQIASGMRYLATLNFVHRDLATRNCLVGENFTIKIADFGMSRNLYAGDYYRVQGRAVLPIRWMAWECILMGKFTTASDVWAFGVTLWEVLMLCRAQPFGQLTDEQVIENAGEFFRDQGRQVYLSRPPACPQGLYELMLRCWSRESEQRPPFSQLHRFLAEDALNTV
T3 sequence (Q6P2M8 whole entry): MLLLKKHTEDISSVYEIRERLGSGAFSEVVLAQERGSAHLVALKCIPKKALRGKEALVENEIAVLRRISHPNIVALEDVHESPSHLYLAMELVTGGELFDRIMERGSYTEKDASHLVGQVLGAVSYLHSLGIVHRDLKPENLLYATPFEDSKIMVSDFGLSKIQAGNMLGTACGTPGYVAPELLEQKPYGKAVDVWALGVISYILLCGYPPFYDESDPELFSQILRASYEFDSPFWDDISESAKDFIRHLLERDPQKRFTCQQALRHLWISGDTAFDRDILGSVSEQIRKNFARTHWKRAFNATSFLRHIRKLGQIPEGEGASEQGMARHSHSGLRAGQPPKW
T4 sequence (P23458 whole entry): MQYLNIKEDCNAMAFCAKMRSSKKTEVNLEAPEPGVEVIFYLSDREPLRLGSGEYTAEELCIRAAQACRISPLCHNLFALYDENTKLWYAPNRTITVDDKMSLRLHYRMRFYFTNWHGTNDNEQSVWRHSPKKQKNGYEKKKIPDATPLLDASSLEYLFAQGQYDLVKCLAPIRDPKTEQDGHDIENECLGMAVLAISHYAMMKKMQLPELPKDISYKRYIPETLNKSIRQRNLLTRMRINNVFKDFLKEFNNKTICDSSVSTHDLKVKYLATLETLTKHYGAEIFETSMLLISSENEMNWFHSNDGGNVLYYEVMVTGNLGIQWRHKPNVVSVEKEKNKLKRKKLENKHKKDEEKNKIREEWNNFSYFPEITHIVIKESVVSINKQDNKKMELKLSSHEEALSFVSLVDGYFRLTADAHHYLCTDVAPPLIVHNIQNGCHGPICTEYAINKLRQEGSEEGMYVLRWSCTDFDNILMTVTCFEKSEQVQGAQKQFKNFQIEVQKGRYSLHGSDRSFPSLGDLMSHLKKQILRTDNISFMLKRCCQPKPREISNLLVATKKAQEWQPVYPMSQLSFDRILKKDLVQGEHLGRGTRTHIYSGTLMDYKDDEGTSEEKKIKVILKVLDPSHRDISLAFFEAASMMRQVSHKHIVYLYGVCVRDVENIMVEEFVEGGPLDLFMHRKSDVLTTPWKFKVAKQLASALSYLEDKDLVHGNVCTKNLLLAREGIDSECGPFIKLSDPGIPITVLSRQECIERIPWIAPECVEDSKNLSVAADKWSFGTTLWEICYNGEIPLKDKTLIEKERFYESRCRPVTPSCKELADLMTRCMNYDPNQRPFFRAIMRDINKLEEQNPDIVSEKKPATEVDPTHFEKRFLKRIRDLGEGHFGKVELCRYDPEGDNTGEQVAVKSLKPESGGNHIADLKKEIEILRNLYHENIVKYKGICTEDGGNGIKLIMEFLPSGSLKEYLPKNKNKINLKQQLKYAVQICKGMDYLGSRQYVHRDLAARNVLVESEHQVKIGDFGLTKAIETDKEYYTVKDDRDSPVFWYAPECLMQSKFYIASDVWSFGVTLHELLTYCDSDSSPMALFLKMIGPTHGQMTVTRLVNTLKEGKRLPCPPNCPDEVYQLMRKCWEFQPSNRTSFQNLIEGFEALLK
Chain of Alpha-2A adrenergic receptor (P08913 whole entry, canonical isoform): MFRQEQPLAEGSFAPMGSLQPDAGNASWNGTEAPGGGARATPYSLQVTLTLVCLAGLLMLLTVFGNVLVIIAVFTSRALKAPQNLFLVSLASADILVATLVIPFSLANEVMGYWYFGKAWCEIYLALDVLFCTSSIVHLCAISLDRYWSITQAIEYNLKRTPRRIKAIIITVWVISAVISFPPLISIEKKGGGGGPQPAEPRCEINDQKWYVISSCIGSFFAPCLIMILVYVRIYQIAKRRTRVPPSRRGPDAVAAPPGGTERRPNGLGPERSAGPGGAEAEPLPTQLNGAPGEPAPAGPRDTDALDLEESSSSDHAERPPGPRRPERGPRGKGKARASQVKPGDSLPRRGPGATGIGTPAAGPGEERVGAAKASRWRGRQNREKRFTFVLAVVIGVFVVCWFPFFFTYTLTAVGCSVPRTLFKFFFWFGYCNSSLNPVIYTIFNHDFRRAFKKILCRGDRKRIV
Chain of Histone-lysine N-methyltransferase SUV39H2 (Q9H5I1 whole entry): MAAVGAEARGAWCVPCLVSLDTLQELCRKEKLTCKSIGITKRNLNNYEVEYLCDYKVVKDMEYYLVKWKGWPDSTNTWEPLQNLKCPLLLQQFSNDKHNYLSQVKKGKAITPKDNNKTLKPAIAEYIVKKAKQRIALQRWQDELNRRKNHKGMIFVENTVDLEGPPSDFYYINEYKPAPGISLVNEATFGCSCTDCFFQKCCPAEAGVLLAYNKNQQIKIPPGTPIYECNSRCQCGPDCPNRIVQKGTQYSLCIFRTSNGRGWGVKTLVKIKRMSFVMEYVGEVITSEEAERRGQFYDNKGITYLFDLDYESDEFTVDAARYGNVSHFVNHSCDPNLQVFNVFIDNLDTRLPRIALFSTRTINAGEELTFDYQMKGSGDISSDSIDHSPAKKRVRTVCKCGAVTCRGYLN
Chain of Protein arginine N-methyltransferase 8 (Q9NR22 whole entry): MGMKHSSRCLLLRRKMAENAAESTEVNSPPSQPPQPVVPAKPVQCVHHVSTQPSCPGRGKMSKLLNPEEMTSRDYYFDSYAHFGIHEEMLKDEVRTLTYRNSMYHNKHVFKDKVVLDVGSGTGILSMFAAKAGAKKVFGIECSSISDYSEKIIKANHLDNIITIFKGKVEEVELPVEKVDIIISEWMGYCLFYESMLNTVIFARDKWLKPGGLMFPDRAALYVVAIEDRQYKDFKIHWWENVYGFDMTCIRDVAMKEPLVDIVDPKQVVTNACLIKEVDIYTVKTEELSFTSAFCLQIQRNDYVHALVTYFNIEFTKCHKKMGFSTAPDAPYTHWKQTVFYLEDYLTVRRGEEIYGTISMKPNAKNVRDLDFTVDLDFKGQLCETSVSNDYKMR

Ki [1]: > 10 µM
Ki [2]: > 10 µM
SMILES: O=C(NNS(=O)(=O)c1ccccc1)c1cc(-c2ccnnc2)ccc1F [WM-2474]

IC50 [3]: > 20 µM
% of control [4]: 36.7%
IC50 [5]: > 20 µM
IC50 [6]: > 20 µM
% of control [7]: 38.6%
% of control [8]: 39.5%
% of control [9]: 33.9%
IC50 [10]: > 20 µM
% of control [11]: 39.6%
SMILES: Cc1cnc(-c2cc(Cl)ccc2F)cc1-n1c(=O)n(CC(N)=O)c2cnccc21 [TP-008]

IC50 [12]: > 10 µM
IC50 [13]: > 10 µM
IC50 [14]: > 10 µM
IC50 [15]: > 10 µM
IC50 [16]: > 10 µM
IC50 [17]: > 10 µM
IC50 [18]: > 10 µM
IC50 [19]: > 10 µM
IC50 [20]: > 10 µM
IC50 [21]: > 10 µM
Ki [22]: > 10 µM
IC50 [23]: > 10 µM
IC50 [24]: > 10 µM
IC50 [25]: > 10 µM
SMILES: COc1cc2c(NC3CCN(C(C)C)CC3)nc(N3CCC(F)(F)CC3)nc2cc1OCCCN1CCCC1
